# Experiments:
# [1] = biological target: N-methyl-D-aspartate receptor; experiment: Inhibition of the NMDA receptor (Eurofins Panlabs Taiwan); format: binding; details: conducted by Eurofins Panlabs Taiwan
# Method: (§1) The compounds were evaluated for their ability to anaesthetise rats when administered by continuous intravenous infusion, as reported previously. Compounds were administered to initially deliver 20 mg/kg/min (weight-adjusted flow) to achieve a pedal withdrawal reflex score (PWR = 1), then titrated to maintain loss of righting reflex (LORR) for 10 min. Three rats were used in each study, with each group of rats also acting as their own ketamine control. Data were collected on the total dose of drug (mg/kg), to achieve LORR and a PWR = 1, and on the time (in seconds, from cessation of the infusion) to recovery of righting reflex (RORR) (recovery from the hypnotic anaesthesia effect). Given the complexity of the experimental protocol, the total dose for LORR (Table 1) is very consistent, with ranges of only 1.5-fold within each group. The consistency of the post-sedation recovery times are expectedly lower, with ranges of about 2.5-fold. During recovery the rats were monitored for multiple signs of behavioural dysfunction (see biology section for details) and the sum of these scores (from 0 to 4, with 0 being no effect and 4 being severe dysfunction) is given in Table 2. IC50 values for inhibition of the NMDA receptor were conducted by Eurofins PanLabs, Taiwan.
# rats [2] = experiment: Behavioural dysfunction scoring during recovery from infusion; format: in vivo; details: rat, during wake-up; sum score 0 (no effect) to 4 (severe dysfunction); mean (SEM)
# Method: as §1
# Behavioural dysfunction scoring: This was undertaken according to the following table. Observations were made over a one minute interval every five minutes from cessation of infusion until return of normal behaviours (total score = 0). A score of 1 was accorded for any positive behavioural aberration for each of four categories (maximal score 4) during wake-up.
# Duration of any behavioural aberration was recorded from RORR as follows: score 0 = nil; score1 = 0–120 s; score 2 = 121–300 s; score 3 = 301–600 s; score 4 = 600+ s.
# rats [3] = experiment: Tail flick analgaesic assessment (composite tail flick latency, cTFL); format: in vivo; details: rat, 20 mg/kg i.v. infused over 10 min; AUC of %MPE-time curve 0-60 min; measure of analgaesic magnitude/duration
# Method: Analgaesic assessment protocol: Animal preparation was in accord with the anaesthetic assessment protocol above. Three rats were used in each study. Following venous cannulation, animals underwent infusion of ketamine or experimental compound at 20 mg/kg over a ten minute interval. A tail flick analgaesia meter (Colombus Instruments, Colombus, Ohio) was then used to determine thermal pain sensitivity. Radiant heat was applied using a shutter-controlled lamp as a heat source focused on a spot located 6–8 cm from the tip of the tail. The intensity of the beam was set at a level producing basal latency times between 2 and 4 s. To prevent thermal tissue injury the cut off time as set at 10 s. A digital response time indicator with a resolution of 0.1s measured the time from initiation of stimulus until tail withdrawal (the flick; TFL).
# The TFL response following infusion of control and study drugs was calculated as a percentage of the maximum possible effect (MPE) such that:%MPE = [TFL (post-drug) – TFL (pre-drug)/10 s – TFL (pre-drug)] × 100%(1)
# TFL latency was recorded at 5 min intervals from cessation of study drug infusion (time zero) to 60 min. Individual %MPE-time curves were constructed for each animal, and the area under the curve (AUC) adopted as a composite measure of induced analgaesia (cTFL).
# rats [4] = experiment: Anaesthetic assessment by continuous intravenous infusion in rats (loss and return of righting reflex); format: in vivo; details: rat; for minimal effective dose: iv, i.v. infusion starting at 20 mg/kg/min, measure of sedative potency, mean (SEM), read-out: Sedation LORR: minimal dose for loss of righting reflex (SEM)
# Method: as §1
# (§2) All animal experiments were conducted at the Ruakura Research Centre, Hamilton, New Zealand, using experimental protocols reviewed and approved by the Ruakura Animal Ethics Committee (ethics ref 12604/13786). Adult female Sprague-Dawley rats of approximately 250–350 g were evaluated in both anaesthetic and analgaesic study protocols. All study agents were delivered by tail vein cannula connected via minibore extension tubing to mechanised infusion pump.
# (§3) Following acquisition of baseline physiologic parameters (heart rate, respiratory rate, PWR, and righting reflex (RR)) ketamine or an experimental compound at 10mg/mL were commenced at a rate (weight-adjusted) to deliver 20 mg/kg/min. Dose to loss of righting reflex (LORR see below), and subsequent pedal withdrawal score of 1 (PWR see below) were recorded. Following attaining a PWR of 1, infusion rate was reduced to 6.7 mg/kg/min, then titrated in an up-and-down fashion as required to maintain both dorsal recumbency, and a PWR = 1, to 10 min before cessation. Each study used three rats, with each group of rats also acting as their own ketamine control. Prior odds/evens randomisation determined the order of study drug administration was determined by with a recovery interval of at least three hours afforded between experiments. Records of PWR and RR were made at one-minute intervals throughout, from cessation of infusion to return of righting reflex (RORR), and from cessation of infusion to the animals displaying independent locomotion (walk).
# Loss of Righting Reflex (LORR): This is primarily used to assess anaesthetic hypnotic effect. Righting reflex is judged absent when the rat fails to right from a position of dorsal recumbency to a position of sternal recumbency on three attempts performed in rapid succession. Dose to LORR is termed effective potency.
# rats [5] = experiment: Pedal withdrawal reflex (PWR) scoring during intravenous infusion (analgaesic potency); format: in vivo; details: rat, i.v. infusion, dose to PWR = 1, mean (SEM), read-out: Analgaesia potency: minimal dose for loss of pedal withdrawal reflex (SEM)
# Method: as §1, §2, §3
# Pedal Withdrawal Reflex (PWR) scoring: Nociceptive testing in animals was conducted via 1 s application of constant pressure (firm digital pressure) over the forepaw of the animal. Pedal withdrawal reflex testing is primarily used to assess analgaesic effect, and responses are graded accordingly: 0, absent; 1, flicker; 2, moderate withdrawal; 3, fast withdrawal; 4, Fast withdrawal with cry/preceding apnoea (modified from).
Compound,IC50 [1],Behavioural dysfunction Score (SEM): severity on recovery (rats [2]),Analgaesia cTFL (composite tail flick latency) (rats [3]),Seizure-inducing effect during infusion (rats [4]; i.v. infusion in anaesthetic assessment protocol),minimal effective dose (rats [5]),minimal effective dose (rats [4])
COC(=O)CCCCNC1(c2ccc(OC)cc2)CCCCC1=O (stereo not drawn) [17b],94.1 µM,3 (0),551 s,seizure-inducing effect,,
COC(=O)CCCCNC1(c2cccs2)CCCCC1=O (stereo not drawn) [20b],8.9 µM,,196 s,,74 mg/kg,52 mg/kg
CC(C)OC(=O)CCNC1(c2ccccc2OC(F)(F)F)CCCCC1=O (stereo not drawn) [9a],184 µM,1 (0),80 s,,62 mg/kg,62 mg/kg
COC(=O)CCCCNC1(c2ccccc2C(F)(F)F)CCCCC1=O (stereo not drawn) [8b],128 µM,1 (0),1864 s,,156 mg/kg,154 mg/kg
CC(C)OC(=O)CCNC1(c2cccc(OC(F)(F)F)c2)CCCCC1=O (stereo not drawn) [14a],211 µM,0 (0),274 s,,> 200 mg/kg,> 200 mg/kg
COC(=O)CCCCNC1(c2ccc(C(F)(F)F)cc2)CCCCC1=O (stereo not drawn) [18b],470 µM,0 (0),37 s,,> 200 mg/kg,> 200 mg/kg
COC(=O)CCCCNC1(c2cccc(C(F)(F)F)c2)CCCCC1=O (stereo not drawn) [13b],172 µM,0 (0),8 s,,> 200 mg/kg,> 200 mg/kg
COC(=O)CCCCNC1(c2ccc(C)cc2)CCCCC1=O (stereo not drawn) [16b],23 µM,1 (0),0 s,,55 mg/kg,50 mg/kg
COC(=O)CCCCNC1(c2ccccc2OC)CCCCC1=O (stereo not drawn) [7b],> 1000 µM,3 (1),2332 s,,49 mg/kg,34 mg/kg
COC(=O)CCCCNC1(c2ccc(OC(F)(F)F)cc2)CCCCC1=O (stereo not drawn) [19b],597 µM,0 (0),194 s,,> 200 mg/kg,> 200 mg/kg
CC(C)OC(=O)CCNC1(c2cccc(Cl)c2)CCCCC1=O (stereo not drawn) [10a],164 µM,1 (0),332 s,,58 mg/kg,67 mg/kg
COc1ccccc1C1(NCCC(=O)OC(C)C)CCCCC1=O (stereo not drawn) [7a],172 µM,0 (0),313 s,,> 200 mg/kg,> 200 mg/kg
COC(=O)CCCCNC1(c2cccc(OC)c2)CCCCC1=O (stereo not drawn) [12b],5.6 µM,3 (1.4),210 s,,58 mg/kg,50 mg/kg
CC(C)OC(=O)CCNC1(c2ccccc2)CCCCC1=O (stereo not drawn) [3a],> 1000 µM,0.5 (0.7),0 s,,> 200 mg/kg,> 200 mg/kg
Cc1cccc(C2(NCCC(=O)OC(C)C)CCCCC2=O)c1 (stereo not drawn) [11a],466 µM,2 (1),63 s,,50 mg/kg,38 mg/kg
CC(C)OC(=O)CCNC1(c2ccc(OC(F)(F)F)cc2)CCCCC1=O (stereo not drawn) [19a],314 µM,0 (0),166 s,,> 200 mg/kg,> 200 mg/kg
CC(C)OC(=O)CCNC1(c2cccc(C(F)(F)F)c2)CCCCC1=O (stereo not drawn) [13a],229 µM,0 (0),208 s,,> 200 mg/kg,> 200 mg/kg
CC(C)OC(=O)CCNC1(c2ccc(Cl)cc2)CCCCC1=O (stereo not drawn) [15a],129 µM,2 (1),491 s,,> 200 mg/kg,99 mg/kg
COC(=O)CCCCNC1(c2ccccc2OC(F)(F)F)CCCCC1=O (stereo not drawn) [9b],121 µM,3 (1),119 s,,> 200 mg/kg,> 200 mg/kg
CC(C)OC(=O)CCNC1(c2cccs2)CCCCC1=O (stereo not drawn) [20a],157 µM,1 (1),362 s,,> 200 mg/kg,> 200 mg/kg
CC(C)OC(=O)CCNC1(c2ccc(C(F)(F)F)cc2)CCCCC1=O (stereo not drawn) [18a],438 µM,0 (0),412 s,,> 200 mg/kg,> 200 mg/kg
COc1cccc(C2(NCCC(=O)OC(C)C)CCCCC2=O)c1 (stereo not drawn) [12a],201 µM,2 (0),284 s,,83 mg/kg,79 mg/kg
COC(=O)CCCCNC1(c2cccc(OC(F)(F)F)c2)CCCCC1=O (stereo not drawn) [14b],57 µM,0 (0),444 s,,> 200 mg/kg,> 200 mg/kg
CC(C)OC(=O)CCNC1(c2ccccc2F)CCCCC1=O (stereo not drawn) [4a],249 µM,1 (0),1297 s,,62 mg/kg,59 mg/kg
COC(=O)CCCCNC1(c2ccccc2C)CCCCC1=O (stereo not drawn) [6b],3.4 µM,1 (0),91 s,,43 mg/kg,37 mg/kg
